Drawing on patent publication US8802700B2 (Vertex Pharmaceuticals Incorporated, priority 2010, dated 2014), this text covers EC50 and Emax for 39 compounds.

T1 sequence (P13569 with tags, fused parts or gaps DEL508-508): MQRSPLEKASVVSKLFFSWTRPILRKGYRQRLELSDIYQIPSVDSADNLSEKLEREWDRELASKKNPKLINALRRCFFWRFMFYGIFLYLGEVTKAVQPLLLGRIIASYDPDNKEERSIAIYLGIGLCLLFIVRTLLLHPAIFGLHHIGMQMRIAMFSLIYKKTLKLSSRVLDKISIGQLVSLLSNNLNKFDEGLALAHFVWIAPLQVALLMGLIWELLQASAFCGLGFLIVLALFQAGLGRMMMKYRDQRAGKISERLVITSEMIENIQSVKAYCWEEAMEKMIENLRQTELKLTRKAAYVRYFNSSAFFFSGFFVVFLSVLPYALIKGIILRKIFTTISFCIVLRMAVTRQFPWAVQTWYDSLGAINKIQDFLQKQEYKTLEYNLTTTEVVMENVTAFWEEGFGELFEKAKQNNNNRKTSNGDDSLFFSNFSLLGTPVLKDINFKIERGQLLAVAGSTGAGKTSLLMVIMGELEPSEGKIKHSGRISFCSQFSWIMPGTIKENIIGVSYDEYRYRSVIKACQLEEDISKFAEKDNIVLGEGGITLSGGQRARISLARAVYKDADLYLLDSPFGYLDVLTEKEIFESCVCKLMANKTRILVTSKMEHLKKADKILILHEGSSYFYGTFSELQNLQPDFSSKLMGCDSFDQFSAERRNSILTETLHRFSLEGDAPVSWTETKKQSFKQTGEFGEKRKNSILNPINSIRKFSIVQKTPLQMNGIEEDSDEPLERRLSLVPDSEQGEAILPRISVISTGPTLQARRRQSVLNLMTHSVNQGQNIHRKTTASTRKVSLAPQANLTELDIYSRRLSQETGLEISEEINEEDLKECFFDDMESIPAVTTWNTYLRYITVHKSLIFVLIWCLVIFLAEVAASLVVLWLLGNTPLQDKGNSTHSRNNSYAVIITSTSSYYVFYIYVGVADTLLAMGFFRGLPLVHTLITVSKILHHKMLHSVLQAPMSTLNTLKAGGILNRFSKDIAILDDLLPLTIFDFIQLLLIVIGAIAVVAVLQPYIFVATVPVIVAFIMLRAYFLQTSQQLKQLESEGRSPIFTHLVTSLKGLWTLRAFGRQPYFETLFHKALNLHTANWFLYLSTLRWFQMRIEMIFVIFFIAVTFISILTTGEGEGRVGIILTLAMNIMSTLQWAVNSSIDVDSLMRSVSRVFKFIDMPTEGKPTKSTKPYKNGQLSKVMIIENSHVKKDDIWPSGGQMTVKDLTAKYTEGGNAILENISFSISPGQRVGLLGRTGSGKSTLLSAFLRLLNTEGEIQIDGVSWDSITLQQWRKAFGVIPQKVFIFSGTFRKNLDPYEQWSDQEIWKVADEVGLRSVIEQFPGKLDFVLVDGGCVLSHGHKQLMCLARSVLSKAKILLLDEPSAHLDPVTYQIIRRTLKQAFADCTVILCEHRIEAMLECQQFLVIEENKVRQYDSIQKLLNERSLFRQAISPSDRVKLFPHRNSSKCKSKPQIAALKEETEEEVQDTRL

One assay concerns the target T1, ΔF508-CFTR (Homo sapiens, UniProt P13569, DEL508-508).
T1 construct: expressed in transfected cells
The assay is described as follows: Membrane potential optical assay (FRET voltage-sensor dyes, VIPR), identification of potentiator compounds. Conditions: Table 3; assay not given. In kind it is cell-based. In a few lines:
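NIH3T3 mouse fibroblasts stably expressing ΔF508-CFTR, cultured 24 h at 27 °C, were loaded with FRET voltage dyes CC2-DMPE and DiSBAC2(3). Double-addition format: first addition of Cl⁻-free (gluconate) medium with or without compound; membrane-potential change read as fluorescence on VIPR II.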
As for `O=C(Nc1cc(O)c2ccccc2c1)c1c[nH]c2ccccc2c1=O` [Compound 551, N-(4-hydroxy-2-naphthyl)-4-oxo-1H-quinoline-3-carboxamide], the EC50 (as a rule, the concentration giving half of the maximal effect) was under 10 µM.
Take `CCOC(=O)Nc1ccc(CC)c(NC(=O)c2c[nH]c3ccccc3c2=O)c1` [Compound 472, [4-ethyl-3-[(4-oxo-1H-quinolin-3-yl)carbonylamino]phenyl]aminoformic acid ethyl ester]: the EC50 is under 10 µM.

The same assay, now with this note: Table 3; assay not given; read-out: % Activity (% Efficacy, relative efficacy).
With `O=C(Nc1ccccc1)c1c[nH]c2cc(C(F)(F)F)ccc2c1=O` [Compound 346, 4-oxo-N-phenyl-7-(trifluoromethyl)-1H-quinoline-3-carboxamide], the Emax lay in the range of 25 to 100%.
Turning to `Cc1ccc(NC(=O)c2c[nH]c3ccccc3c2=O)c(C)c1` [Compound 281, N-(2,4-dimethylphenyl)-4-oxo-1H-quinoline-3-carboxamide], the Emax fell in the range of 25 to 100%.
With `O=C(Nc1cc(O)c2ccccc2c1)c1c[nH]c2ccccc2c1=O` [Compound 551, N-(4-hydroxy-2-naphthyl)-4-oxo-1H-quinoline-3-carboxamide], the Emax lay within 25 to 100%.
As for `CC(C)(C)c1ccc(NC(=O)c2c[nH]c3ccccc3c2=O)cc1CN` [Compound 390, N-[3-(Aminomethyl)-4-tert-butyl-phenyl]-4-oxo-1H-quinoline-3-carboxamide], the Emax is under 25%.
On the same count and under the same terms, in the case of `Nc1cccc(NC(=O)c2c[nH]c3ccccc3c2=O)c1` [Compound 431, N-(3-aminophenyl)-4-oxo-1H-quinoline-3-carboxamide] it was 25 to 100%.
As for `Cc1cc(OC(F)(F)F)ccc1NC(=O)c1c[nH]c2ccccc2c1=O` [Compound 538, N-[2-methyl-4-(trifluoromethoxy)phenyl]-4-oxo-1H-quinoline-3-carboxamide], the Emax was in the range of 25 to 100%.
For the compound `O=C(Nc1ccccc1-c1ccc(OC(F)(F)F)cc1)c1c[nH]c2ccccc2c1=O` [Compound 388, 4-oxo-N-[2-[4-(trifluoromethoxy)phenyl]phenyl]-1H-quinoline-3-carboxamide], the Emax was 25 to 100%.
Turning to `Cc1cccc2[nH]cc(C(=O)Nc3ccc(N4C[C@@H]5CC[C@H]4C5)cc3C(F)(F)F)c(=O)c12` [Compound 582, N-(4-((1S,4R)-2-azabicyclo[2.2.1]heptan-2-yl)-2-(trifluoromethyl)phenyl)-5-methyl-4-oxo-1,4-dihydroquinoline-3-carboxamide], the Emax was in the range of 25 to 100%.
On the same count and under the same terms, the value for `N#Cc1ccc(-c2ccccc2NC(=O)c2c[nH]c3ccccc3c2=O)s1` [Compound 93, N-[2-(5-cyano-2-thienyl)phenyl]-4-oxo-1H-quinoline-3-carboxamide] was 25 to 100%.
On to `Nc1cc(NC(=O)c2c[nH]c3ccccc3c2=O)cc(C(F)(F)F)c1` [Compound 429, N-[3-amino-5-(trifluoromethyl)phenyl]-4-oxo-1H-quinoline-3-carboxamide], for which the Emax is 25 to 100%.
The same measure, in the same setting: in the case of `COc1c(C(=O)Nc2ccc(C(C)(C)C)c(O)c2)cnc2ccccc12` [Compound 415, N-(3-Hydroxy-4-tert-butyl-phenyl)-4-methoxy-quinoline-3-carboxamide] it was 25 to 100%; in that of `CCCc1ccc(N(C)C)cc1NC(=O)c1c[nH]c2ccccc2c1=O` [Compound 98, N-(5-dimethylamino-2-propyl-phenyl)-4-oxo-1H-quinoline-3-carboxamide], 25 to 100%; in that of `COC(=O)[C@@H]1[C@H]2C[C@H]2CN1c1ccc(NC(=O)c2c[nH]c3ccccc3c2=O)c(C(F)(F)F)c1` [Compound 531, (1S,2S,5R)-methyl 3-(4-(4-oxo-1,4-dihydroquinoline-3-carboxamido)-3-(trifluoromethyl)phenyl)-3-azabicyclo[3.1.0]hexane-2-carboxylate], 25 to 100%.
For the compound `Cc1ccc(NC(=O)c2c[nH]c3ccccc3c2=O)cc1C` [Compound 246, N-(3,4-dimethylphenyl)-4-oxo-1H-quinoline-3-carboxamide], the Emax fell in the range of 25 to 100%.
Take `O=C(Nc1ccc(Cl)nc1)c1c[nH]c2ccccc2c1=O` [Compound 392, N-(6-chloro-3-pyridyl)-4-oxo-1H-quinoline-3-carboxamide]: the Emax was under 25%.
Still for that read-out and setting: in the case of `CC(C)c1ccc(NC(=O)c2c[nH]c3ccccc3c2=O)cc1N` [Compound 69, N-(3-amino-4-isopropyl-phenyl)-4-oxo-1H-quinoline-3-carboxamide] it was 25 to 100%; in that of `Cc1cccc2[nH]cc(C(=O)Nc3ccc(N4[C@H](C)CC[C@H]4C)cc3C(F)(F)F)c(=O)c12` [Compound 539, N-(4-((2R,5R)-2,5-dimethylpyrrolidin-1-yl)-2-(trifluoromethyl)phenyl)-5-methyl-4-oxo-1,4-dihydroquinoline-3-carboxamide], 25 to 100%; in that of `CCOc1cc(NC(=O)c2c[nH]c3ccccc3c2=O)c(OCC)cc1NC(=O)c1ccccc1` [Compound 7, N-(4-benzoylamino-2,5-diethoxy-phenyl)-4-oxo-1H-quinoline-3-carboxamide], under 25%.
As to `CC(C)(C)c1cc(C(C)(C)C)c(NC(=O)c2c[nH]c3ccc(Cl)cc3c2=O)cc1O` [Compound 623, 6-chloro-N-(5-hydroxy-2,4-ditert-butyl-phenyl)-4-oxo-1H-quinoline-3-carboxamide], the Emax lay within 25 to 100%.
On the same count and under the same terms, the value for `Cc1ccc(C)n1-c1ccccc1NC(=O)c1c[nH]c2ccccc2c1=O` [Compound 297, N-[2-(2,5-dimethyl-1H-pyrrol-1-yl)phenyl]-4-oxo-1H-quinoline-3-carboxamide] was 25 to 100%; that for `CC(C)(C)c1cc(C(C)(C)C)c(NC(=O)c2c[nH]c3c(Cl)cccc3c2=O)cc1O` [Compound 663, 8-chloro-N-(5-hydroxy-2,4-ditert-butyl-phenyl)-4-oxo-1H-quinoline-3-carboxamide] was 25 to 100%.
Turning to `N#Cc1c(Cl)cccc1NC(=O)c1c[nH]c2ccccc2c1=O` [Compound 222, N-(3-chloro-2-cyano-phenyl)-4-oxo-1H-quinoline-3-carboxamide], the Emax was in the range of 25 to 100%.
The same measure, in the same setting: the value for `O=C(Nc1ccc(C(F)(F)F)cc1Cl)c1c[nH]c2ccccc2c1=O` [Compound 532, N-[2-chloro-4-(trifluoromethyl)phenyl]-4-oxo-1H-quinoline-3-carboxamide] was 25 to 100%.
With `O=C(Nc1ccc2cc[nH]c2c1)c1cnc2c(F)cc(F)cc2c1O` [Compound 377, 6,8-difluoro-4-hydroxy-N-(1H-indol-6-yl)quinoline-3-carboxamide], the Emax lay within 25 to 100%.
Same read-out and setting: the value for `O=C(Nc1ccccc1-c1ccc(F)c(F)c1)c1c[nH]c2ccccc2c1=O` [Compound 76, N-[2-(3,4-difluorophenyl)phenyl]-4-oxo-1H-quinoline-3-carboxamide] was 25 to 100%; that for `O=C(Nc1ccc2cc[nH]c2c1)c1c(C(F)(F)F)[nH]c2ccccc2c1=O` [Compound 184, N-(1H-indol-6-yl)-4-oxo-2-(trifluoromethyl)-1H-quinoline-3-carboxamide] was under 25%; that for `CCOc1ccc2ncc(C(=O)Nc3ccc4cc[nH]c4c3)c(O)c2c1` [Compound 112, 6-ethoxy-4-hydroxy-N-(1H-indol-6-yl)quinoline-3-carboxamide] was 25 to 100%.
Consider `CN(C)[C@H]1CCN(c2ccc(NC(=O)c3c[nH]c4ccccc4c3=O)c(C(F)(F)F)c2)C1` [Compound 513, (S)-N-(4-(3-(dimethylamino)pyrrolidin-1-yl)-2-(trifluoromethyl)phenyl)-4-oxo-1,4-dihydroquinoline-3-carboxamide], for which the Emax was 25 to 100%.
Turning to `COC(=O)Nc1cc(NC(=O)c2c[nH]c3ccccc3c2=O)ccc1C(C)(C)C` [Compound 14, [5-[(4-oxo-1H-quinolin-3-yl)carbonylamino]-2-tert-butyl-phenyl]aminoformic acid methyl ester], the Emax lay within 25 to 100%.
`COc1cc(NC(=O)c2c[nH]c3ccccc3c2=O)cc(C(F)(F)F)c1` [Compound 691, N-[3-methoxy-5-(trifluoromethyl)phenyl]-4-oxo-1H-quinoline-3-carboxamide]: the Emax fell in the range of 25 to 100%.
For the compound `COC(=O)Nc1cc(NC(=O)c2c[nH]c3ccccc3c2=O)ccc1C(C)C` [Compound 30, [2-isopropyl-5-[(4-oxo-1H-quinolin-3-yl)carbonylamino]phenyl]aminoformic acid methyl ester], the Emax lay in the range of 25 to 100%.
Take `CC1(c2ccc(NC(=O)c3c[nH]c4cccc(O)c4c3=O)cc2)COC1` [Compound 529, 5-hydroxy-N-[4-(3-methyloxetan-3-yl)phenyl]-4-oxo-1H-quinoline-3-carboxamide]: the Emax lay within 25 to 100%.
For `Cc1cccc(Oc2ncccc2NC(=O)c2c[nH]c3ccccc3c2=O)c1C` [Compound 206, N-[2-(2,3-dimethylphenoxy)-3-pyridyl]-4-oxo-1H-quinoline-3-carboxamide], the Emax fell in the range of 25 to 100%.
For `CCOC(=O)C(C)(C)c1ccc(NC(=O)c2c[nH]c3ccccc3c2=O)cc1` [Compound 420, 2-methyl-2-[4-[(4-oxo-1H-quinolin-3-yl)carbonylamino]phenyl]-propanoic acid ethyl ester], the Emax was in the range of 25 to 100%.
With `COc1ccc2[nH]cc(C(=O)Nc3ccc(N4CCC[C@@H]4C)cc3C(F)(F)F)c(=O)c2c1` [Compound 601, (S)-6-methoxy-N-(4-(2-methylpyrrolidin-1-yl)-2-(trifluoromethyl)phenyl)-4-oxo-1,4-dihydroquinoline-3-carboxamide], the Emax was 25 to 100%.
Turning to `N#Cc1cccc(NC(=O)c2c[nH]c3ccccc3c2=O)c1` [Compound 447, N-(3-cyanophenyl)-4-oxo-1H-quinoline-3-carboxamide], the Emax fell in the range of 25 to 100%.
For the compound `CC(C)c1ccc(NC(=O)c2c[nH]c3cccc(O)c3c2=O)cc1O` [Compound 587, 5-hydroxy-N-(3-hydroxy-4-isopropyl-phenyl)-4-oxo-1H-quinoline-3-carboxamide], the Emax lay in the range of 25 to 100%.
For `CCOC(=O)Nc1cc(NC(=O)c2c[nH]c3ccccc3c2=O)ccc1C(C)C` [Compound 225, [2-isopropyl-5-[(4-oxo-1H-quinolin-3-yl)carbonylamino]phenyl]aminoformic acid ethyl ester], the Emax was in the range of 25 to 100%.
With `CCOC(=O)Nc1ccc(CC)c(NC(=O)c2c[nH]c3ccccc3c2=O)c1` [Compound 472, [4-ethyl-3-[(4-oxo-1H-quinolin-3-yl)carbonylamino]phenyl]aminoformic acid ethyl ester], the Emax is 25 to 100%.
